Source: article PMC12796071, “Evaluation of [^18F]MNI-1054, a novel PET ligand for lysine-specific histone demethylase 1A (LSD1), in non-human primates” (EJNMMI Research, 2025)
Values joined by “and” are separate entries in the source; they are usually repeats but may differ in a detail not shown here. Equal values may be shown once. “Also recorded” adds a separate entry of the source.

Columns and labels:
LSD1 [1] = biological target: T1, LSD1 (Macaca mulatta, UniProt I2CUD2); test: PET imaging of the testes (baseline and TAK-418 blocking); details: TAK-418 3.0 mg/kg iv 120 min before tracer, M3
Protocol: TAK-418 (3 mg/kg) was administered as an intravenous bolus over 5-min, starting 120 min prior to [^18F]MNI-1054 administration.

LSD1 [2] = biological target: T1, LSD1; test: LSD1 enzyme occupancy in brain from [18F]MNI-1054 PET blocking, self-block and repopulation studies; type: in vivo, rhesus monkeys (macaca mulatta); design: from tissue; host or cells: brain of living rhesus monkeys (M1, M2), in vivo PET; details: for Occupancy: from Ki
Protocol: M1 and M2 each completed a scan at baseline to assess brain penetration and kinetics and to serve as reference for the blocking and displacement studies. A self-block study with cold 3 mg/kg MNI-1054, starting 5 min prior to [^18F]MNI-1054 administration, was conducted in M1 to assess regional differences in non-specific binding.
Blocking studies with the LSD1 inhibitor TAK-418 ([…]) were performed to measure the dose-occupancy relationship for this compound. For blocking studies, TAK-418 was administered intravenously 2 h prior to [^18F]MNI-1054. Prior to conducting these blocking studies, a displacement study with TAK-418 (3 mg/kg) was performed to confirm irreversible tracer binding, in which TAK-418 was administered 1.5 h post [^18F]MNI-1054 administration. For all studies involving TAK-418, the test article was administered intravenously over 5 min. Due to the irreversible binding of these compounds to LSD1, the time taken for the enzyme to re-populate was investigated by imaging one animal (M2) with [^18F]MNI-1054 at 24 and 48 h post TAK-418 treatment (0.3 mg/kg). Each animal also underwent a high-resolution T1-weighted structural brain MRI scan with a 3-D MPRAGE sequence on a separate day for anatomical reference.
Regional occupancy due to TAK-418 or unlabeled MNI-1054 as measured with [^18F]MNI-1054 was computed as the percent change relative to the baseline value of Ki, i.e. where the drug was either TAK-418 or MNI-1054. An Emax model with maximum occupancy constrained to a value less than 100% was fitted to the dose-occupancy plot to estimate Omax (maximal occupancy) and ED50 [mg/kg] representing the injected TAK-418 dose yielding 50% LSD1 occupancy.

[3] = TAK-418 plasma concentration after 5-minute intravenous bolus; type: in vivo, rhesus monkeys (macaca mulatta); details: 0.3 mg/kg iv
[4] = cerebellum, TAK-418 iv 2 h before tracer

O=C(NC1CCOCC1)c1csc([C@@H]2C[C@H]2NCC2CC2)c1 [TAK-418]
occupancy in the testes (LSD1 [1]; from fractional changes in a parameter other than Ki): 94.4%
signal blockade in the testes (LSD1 [1]; compared with control leg muscle, 3 mg/kg): significant signal blockade; also recorded: substantial reduction
Occupancy based on fractional changes in k3 (LSD1 [2]; cerebellum, TAK-418 0.005 mg/kg, 2 h post-dose): 2.4%
Occupancy (LSD1 [2]; cerebellum, TAK-418 0.005 mg/kg, 2 h post-dose, M2): −21.3%
[18F]MNI-1054 Ki 2 h post-dose (LSD1 [2]; cerebellum, TAK-418 0.005 mg/kg, M2): 0.057 mL/cm^3/min
Occupancy (LSD1 [2]; cerebellum, TAK-418 0.01 mg/kg, 2 h post-dose, M1): 47.3%
[18F]MNI-1054 Ki 2 h post-dose (LSD1 [2]; cerebellum, TAK-418 0.01 mg/kg, M1): 0.030 mL/cm^3/min
Occupancy (LSD1 [2]; cerebellum, TAK-418 0.03 mg/kg, 2 h post-dose, M2): 62.5%
[18F]MNI-1054 Ki 2 h post-dose (LSD1 [2]; cerebellum, TAK-418 0.03 mg/kg, M2): 0.017 mL/cm^3/min
Occupancy (LSD1 [2]; cerebellum, TAK-418 0.3 mg/kg, 2 h post-dose, M1): 89.9%
LSD1 enzyme occupancy (LSD1 [2]; cerebellum, TAK-418 0.3 mg/kg, 24 h post-dose, M2): 29.8%
[18F]MNI-1054 Ki 2 h post-dose (LSD1 [2]; cerebellum, TAK-418 0.3 mg/kg, M1): 0.006 mL/cm^3/min
half-life for occupancy to decrease to zero (proxy for LSD1 enzyme repopulation) (LSD1 [2]; cerebellum, TAK-418 0.3 mg/kg, exponential fit to 2, 24 and 48 h occupancy): 12.28 h
Occupancy (LSD1 [2]; cerebellum, TAK-418 3 mg/kg, 2 h post-dose, M1, 3 mg/kg): 90.1%
[18F]MNI-1054 Ki 2 h post-dose (LSD1 [2]; cerebellum, TAK-418 3 mg/kg, M1): 0.005 mL/cm^3/min
ED50 (Emax model fit) (LSD1 [2]; [4]): 0.0224 mg/kg and ~ 0.0224 mg/kg
Omax (Emax model fit) (LSD1 [2]; [4]): 95.6%
ED50 (Emax model fit) (LSD1 [2]; occipital cortex): 0.0279 mg/kg and ~ 0.0279 mg/kg
Omax (Emax model fit) (LSD1 [2]; occipital cortex): 77.3%
ED50 (Emax model fit) (LSD1 [2]; pons): 0.046 mg/kg
Omax (Emax model fit) (LSD1 [2]; pons): 73.3%
TAK-418 levels in plasma ([3]; 24 and 48 hours post-dose, M2): no detectable levels; also recorded: below the level of detection
plasma concentration as percent of its peak value ([3]; after 5 h): 0.45%
